Literature values as cited in patent publication US20190000898A1, “COMBINING ADENOVIRUS AND CHEMOTHERAPEUTIC AGENTS FOR TREATING CANCER” (priority 2016, published 2019).

Key:
unresectable MPM = details: patients; p=0.02
[1] = system: syngeneic pancreatic tumors; details: immune-competent hamsters

Compound | median survival (unresectable MPM) [months] | antitumor efficacy (tumor growth) [1]
N.N.[Cl][Pt][Cl] [Cisplatin] | 9 | 
O=P1(N(CCCl)CCCl)NCCCO1 (centres unmarked) [cyclophosphamide] |  | did not result in significant reduction of tumor growth
